Test results from patent US9175003B2, “Substituted azoanthracene derivatives and intermediates for preparation thereof” (TransTech Pharma, LLC, priority 2009, dated 2015).

Target: human GLP-1 receptor (Homo sapiens (Human), UniProt P43220)
Settings: read-out: Mean EC50; cAMP, HTRF detection, 30 min at 37° C., HEK-293 cells expressing cloned human GLP-1 receptor

Sequence of human GLP-1 receptor (P43220 24-463): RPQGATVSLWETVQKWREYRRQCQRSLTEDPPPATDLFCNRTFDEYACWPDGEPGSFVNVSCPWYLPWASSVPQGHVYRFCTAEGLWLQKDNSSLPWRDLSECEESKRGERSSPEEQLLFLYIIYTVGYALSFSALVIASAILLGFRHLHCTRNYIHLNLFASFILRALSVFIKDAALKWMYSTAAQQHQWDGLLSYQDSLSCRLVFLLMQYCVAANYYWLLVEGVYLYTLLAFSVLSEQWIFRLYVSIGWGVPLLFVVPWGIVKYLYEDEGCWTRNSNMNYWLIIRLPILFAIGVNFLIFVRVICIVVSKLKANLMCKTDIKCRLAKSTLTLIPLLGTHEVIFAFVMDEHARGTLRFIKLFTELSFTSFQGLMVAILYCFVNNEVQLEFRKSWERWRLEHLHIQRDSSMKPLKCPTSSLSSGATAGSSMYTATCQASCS

| EC50 [µM] | Compound |
| --- | --- |
| 0.146 | Cc1ccc(C(=O)N2Cc3cc4c(cc3C[C@H]2C(=O)N[C@@H](Cc2ccc(-c3ccnc(C)c3C)cc2)C(=O)O)OC[C@H](c2ccc(OCc3ccc(Cl)c(Cl)c3)cc2)O4)cc1 [Example 158, (S)-2-{[(3S,8S)-3-[4-(3,4-Dichloro-benzyloxy)-phenyl]-7-(4-methyl-benzoyl)-2,3,6,7,8,9-hexahydro-[1,4]dioxino[2,3-g]isoquinoline-8-carbonyl]-amino}-3-[4-(2,3-dimethyl-pyridin-4-yl)-phenyl]-propionic acid] |
| 0.019 | Cc1nccc(-c2ccc(C[C@H](NC(=O)[C@@H]3Cc4cc5c(cc4CN3C(=O)c3ccccc3)O[C@@H](c3ccc(OCc4ccc(Cl)c(Cl)c4)cc3)CO5)C(=O)O)cc2)c1C [Example 159, (S)-2-({(3S,8S)-7-Benzoyl-3-[4-(3,4-dichloro-benzyloxy)-phenyl]-2,3,6,7,8,9-hexahydro-[1,4]dioxino[2,3-g]isoquinoline-8-carbonyl}-amino)-3-[4-(2,3-dimethyl-pyridin-4-yl)-phenyl]-propionic acid] |
| 0.062 | CC[C@@H](c1ccccc1)N1Cc2cc3c(cc2C[C@H]1C(=O)N[C@@H](Cc1ccc(-c2ccnc(C)c2C)cc1)C(=O)O)OC[C@H](c1ccc(OCC2CCCC2)cc1)O3 [Example 160, (S)-2-{[(3S,8S)-3-(4-Cyclopentylmethoxy-phenyl)-7-((S)-1-phenyl-propyl)-2,3,6,7,8,9-hexahydro-[1,4]dioxino[2,3-g]isoquinoline-8-carbonyl]-amino}-3-[4-(2,3-dimethyl-pyridin-4-yl)-phenyl]-propionic acid] |
| 0.117 | CC[C@@H](c1ccccc1)N1Cc2cc3c(cc2C[C@H]1C(=O)N[C@@H](Cc1ccc(-c2ccnc(C)c2C)cc1)C(=O)O)OC[C@H](c1ccc(OC)cc1)O3 [Example 161, (S)-3-[4-(2,3-Dimethyl-pyridin-4-yl)-phenyl]-2-{[(3S,8S)-3-(4-methoxy-phenyl)-7-((S)-1-phenyl-propyl)-2,3,6,7,8,9-hexahydro-[1,4]dioxino[2,3-g]isoquinoline-8-carbonyl]-amino}-propionic acid] |
| 0.056 | CC[C@@H](c1ccccc1)N1Cc2cc3c(cc2C[C@H]1C(=O)N[C@@H](Cc1ccc(-c2ccnc(C)c2C)cc1)C(=O)O)OC[C@H](c1ccc(OC(C)C)cc1)O3 [Example 162, (S)-3-[4-(2,3-Dimethyl-pyridin-4-yl)-phenyl]-2-{[(3S,8S)-3-(4-isopropoxy-phenyl)-7-((S)-1-phenyl-propyl)-2,3,6,7,8,9-hexahydro-[1,4]dioxino[2,3-g]isoquinoline-8-carbonyl]-amino}-propionic acid] |
| 0.113 | CC[C@@H](c1ccccc1)N1Cc2cc3c(cc2C[C@H]1C(=O)N[C@@H](Cc1ccc(-c2ccnc(C)c2C)cc1)C(=O)O)OC[C@H](c1ccc(OCC2CCCCC2)cc1)O3 [Example 163, (S)-2-{[(3S,8S)-3-(4-Cyclohexylmethoxy-phenyl)-7-((S)-1-phenyl-propyl)-2,3,6,7,8,9-hexahydro-[1,4]dioxino[2,3-g]isoquinoline-8-carbonyl]-amino}-3-[4-(2,3-dimethyl-pyridin-4-yl)-phenyl]-propionic acid] |
| 0.062 | CC[C@@H](c1ccccc1)N1Cc2cc3c(cc2C[C@H]1C(=O)N[C@@H](Cc1ccc(-c2ccnc(C)c2C)cc1)C(=O)O)OC[C@H](c1ccc(OC2CCCCC2)cc1)O3 [Example 164, (S)-2-{[(3S,8S)-3-(4-Cyclohexyloxy-phenyl)-7-((S)-1-phenyl-propyl)-2,3,6,7,8,9-hexahydro-[1,4]dioxino[2,3-g]isoquinoline-8-carbonyl]-amino}-3-[4-(2,3-dimethyl-pyridin-4-yl)-phenyl]-propionic acid] |
| 0.396 | CC[C@@H](c1ccccc1)N1Cc2cc3c(cc2C[C@H]1C(=O)N[C@@H](Cc1ccc(-c2ccnc(C)c2C)cc1)C(=O)O)OC[C@H](c1ccc(OCCN(C)C)cc1)O3 [Example 165, (S)-2-{[(3S,8S)-3-[4-(2-Dimethylamino-ethoxy)-phenyl]-7-((S)-1-phenyl-propyl)-2,3,6,7,8,9-hexahydro-[1,4]dioxino[2,3-g]isoquinoline-8-carbonyl]-amino}-3-[4-(2,3-dimethyl-pyridin-4-yl)-phenyl]-propionic acid] |
| 0.022 | CCC(CC)Oc1ccc([C@H]2COc3cc4c(cc3O2)CN([C@@H](CC)c2ccccc2)[C@H](C(=O)N[C@@H](Cc2ccc(-c3ccnc(C)c3C)cc2)C(=O)O)C4)cc1 [Example 166, (S)-3-[4-(2,3-Dimethyl-pyridin-4-yl)-phenyl]-2-{[(3S,8S)-3-[4-(1-ethyl-propoxy)-phenyl]-7-((S)-1-phenyl-propyl)-2,3,6,7,8,9-hexahydro-[1,4]dioxino[2,3-g]isoquinoline-8-carbonyl]-amino}-propionic acid] |
| 0.174 | CC[C@@H](c1ccccc1)N1Cc2cc3c(cc2C[C@H]1C(=O)N[C@@H](Cc1ccc(-c2ccnc(C)c2C)cc1)C(=O)O)OC[C@H](c1ccc(OCCC2CCCC2)cc1)O3 [Example 167, (S)-2-{[(3S,8S)-3-[4-(2-Cyclopentyl-ethoxy)-phenyl]-7-((S)-1-phenyl-propyl)-2,3,6,7,8,9-hexahydro-[1,4]dioxino[2,3-g]isoquinoline-8-carbonyl]-amino}-3-[4-(2,3-dimethyl-pyridin-4-yl)-5 phenyl]-propionic acid] |
| 0.116 | CC[C@@H](c1ccccc1)N1Cc2cc3c(cc2C[C@H]1C(=O)N[C@@H](Cc1ccc(-c2ccnc(C)c2C)cc1)C(=O)O)OC[C@H](c1ccc(OCc2cccnc2)cc1)O3 [Example 169, (S)-3-[4-(2,3-Dimethyl-pyridin-4-yl)-phenyl]-2-({(3S,8S)-7-((S)-1-phenyl-propyl)-3-[4-(pyridin-3-ylmethoxy)-phenyl]-2,3,6,7,8,9-hexahydro-[1,4]dioxino[2,3-g]isoquinoline-8-carbonyl}-amino)-propionic acid] |
| 0.538 | CCOc1ccc([C@H]2COc3cc4c(cc3O2)CN([C@@H](CC)c2ccccc2)[C@H](C(=O)N[C@@H](Cc2ccc(-c3ccnc(C)c3C)cc2)C(=O)O)C4)cc1 [Example 170, (S)-3-[4-(2,3-Dimethyl-pyridin-4-yl)-phenyl]-2-{[(3S,8S)-3-(4-ethoxy-phenyl)-7-((S)-1-phenyl-propyl)-2,3,6,7,8,9-hexahydro-[1,4]dioxino[2,3-g]isoquinoline-8-carbonyl]-amino}-propionic acid] |
| 0.118 | CC[C@@H](c1ccccc1)N1Cc2cc3c(cc2C[C@H]1C(=O)N[C@@H](Cc1ccc(-c2ccnc(C)c2C)cc1)C(=O)O)OC[C@H](c1ccc(OC2CCCC2)cc1)O3 [Example 171, (S)-2-{[(3S,8S)-3-(4-Cyclopentyloxy-phenyl)-7-((S)-1-phenyl-propyl)-2,3,6,7,8,9-hexahydro-[1,4]dioxino[2,3-g]isoquinoline-8-carbonyl]-amino}-3-[4-(2,3-dimethyl-pyridin-4-yl)-phenyl]-propionic acid] |
| 0.145 | CC[C@@H](c1ccccc1)N1Cc2cc3c(cc2C[C@H]1C(=O)N[C@@H](Cc1ccc(-c2ccnc(C)c2C)cc1)C(=O)O)OC[C@H](c1ccc(OC2CC4CCC2C4)cc1)O3 (stereo partly drawn) [Example 173, (S)-2-{[(3S,8S)-3-[4-(Bicyclo[2.2.1]hept-2-yloxy)-phenyl]-7-((S)-1-phenyl-propyl)-2,3,6,7,8,9-hexahydro-[1,4]dioxino[2,3-g]isoquinoline-8-carbonyl]-amino}-3-[4-(2,3-dimethyl-pyridin-4-yl)-phenyl]-propionic acid] |
| 0.153 | Cc1nccc(-c2ccc(C[C@H](NC(=O)[C@@H]3Cc4cc5c(cc4CN3C(=O)OC(C)(C)C)O[C@@H](c3ccc(OCc4ccc(Cl)c(Cl)c4)cc3)CO5)C(=O)O)cc2)c1C [Example 174, (3S,8S)-8-{(S)-1-Carboxy-2-[4-(2,3-dimethyl-pyridin-4-yl)-phenyl]-ethylcarbamoyl}-3-[4-(3,4-dichloro-benzyloxy)-phenyl]-2,3,8,9-tetrahydro-6H-[1,4]dioxino[2,3-g]isoquinoline-7-carboxylic acid tert-butyl ester] |
| 0.005 | Cc1nccc(-c2ccc(C[C@H](NC(=O)[C@@H]3Cc4cc5c(cc4CN3Cc3ccccn3)O[C@@H](c3ccc(OCc4ccc(Cl)c(Cl)c4)cc3)CO5)C(=O)O)cc2)c1C [Example 175, (S)-2-({(3S,8S)-3-[4-(3,4-Dichloro-benzyloxy)-phenyl]-7-pyridin-2-ylmethyl-2,3,6,7,8,9-hexahydro-[1,4]dioxino[2,3-g]isoquinoline-8-carbonyl}-amino)-3-[4-(2,3-dimethyl-pyridin-4-yl)-phenyl]-propionic acid] |
| 0.004 | Cc1ccccc1CN1Cc2cc3c(cc2C[C@H]1C(=O)N[C@@H](Cc1ccc(-c2ccnc(C)c2C)cc1)C(=O)O)OC[C@H](c1ccc(OCc2ccc(Cl)c(Cl)c2)cc1)O3 [Example 176, (S)-2-{[(3S,8S)-3-[4-(3,4-Dichloro-benzyloxy)-phenyl]-7-(2-methyl-benzyl)-2,3,6,7,8,9-hexahydro-[1,4]dioxino[2,3-g]isoquinoline-8-carbonyl]-amino}-3-[4-(2,3-dimethyl-pyridin-4-yl)-phenyl]-propionic acid] |

| Compound | EC50 [µM] |
| --- | --- |
| CC[C@@H](c1ccccc1)N1Cc2cc3c(cc2C[C@H]1C(=O)N[C@@H](Cc1ccc(-c2ccnc(C)c2C)cc1)C(=O)O)OC[C@H](c1ccc(OCCC(C)(C)C)cc1)O3 [Example 168, (S)-2-{[(3S,8S)-3-[4-(3,3-Dimethyl-butoxy)-phenyl]-7-((S)-1-phenyl-propyl)-2,3,6,7,8,9-hexahydro-[1,4]dioxino[2,3-g]isoquinoline-8-carbonyl]-amino}-3-[4-(2,3-dimethyl-pyridin-4-yl)-phenyl]-propionic acid] | 0.114 |
| CC[C@@H](c1ccccc1)N1Cc2cc3c(cc2C[C@H]1C(=O)N[C@@H](Cc1ccc(-c2ccnc(C)c2C)cc1)C(=O)O)OC[C@H](c1ccc(OCC(C)C)cc1)O3 [Example 172, (S)-3-[4-(2,3-Dimethyl-pyridin-4-yl)-phenyl]-2-{[(3S,8S)-3-(4-isobutoxy-phenyl)-7-((S)-1-phenyl-propyl)-2,3,6,7,8,9-hexahydro-[1,4]dioxino[2,3-g]isoquinoline-8-carbonyl]-amino}-propionic acid] | 0.132 |
